Results: ChEMBL document CHEMBL1201862, “PubChem BioAssay data set” (2004)
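Interpolation was linear, between the two tested concentrations surrounding the appropriate level; five concentrations were tested over 48 hours in 96-well plates. GI50 is the concentration that inhibits growth by half.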 Calls of active or inactive are those of the source. No stated cut-off is given here; in the data, active = GI50 up to about 1.1 µM and inactive = higher.

Columns and labels:
Assay in all cases: inhibition of tumour cell growth, NCI panel, 48 h
NCI-H522 = tested on: NCI-H522
HCC 2998 = tested on: HCC 2998
MOLT-4 = tested on: MOLT-4
UACC-62 = tested on: UACC-62
UO-31 = tested on: UO-31
UACC-257 = tested on: UACC-257
OVCAR-4 = tested on: OVCAR-4
HT-29 = tested on: HT-29
M14 = tested on: M14
SF-539 = tested on: SF-539
SK-MEL-2 = tested on: SK-MEL-2
SK-OV-3 = tested on: SK-OV-3
SR = tested on: SR
OVCAR-5 = tested on: OVCAR-5
SF-268 = tested on: SF-268
EKVX = tested on: EKVX
U-251 = tested on: U-251
BT-549 = tested on: BT-549

Measured: GI50

C/C(=N/N(C=O)C[n+]1ccccc1)C(CN(CC(C)C)CC(C)C)C(=O)Nc1ccc(C)cc1C (stereo not drawn)
inactive: NCI-H522 > 100 µM | HCC 2998 > 100 µM | MOLT-4 > 100 µM | UACC-62 79.6 µM | UO-31 25.8 µM | UACC-257 > 100 µM | OVCAR-4 > 100 µM | HT-29 > 100 µM | M14 > 100 µM | SF-539 > 100 µM | SK-MEL-2 > 100 µM | SK-OV-3 > 100 µM | SR 84.1 µM | OVCAR-5 63.1 µM | SF-268 43 µM | EKVX 17.8 µM

O=c1[nH]c2ccccc2cc1C(Cl)=C(Cl)Cl
inactive: NCI-H522 > 100 µM | HCC 2998 > 100 µM | MOLT-4 > 100 µM | U-251 > 100 µM | UACC-62 > 100 µM | UO-31 > 100 µM | UACC-257 > 100 µM | OVCAR-4 > 100 µM | HT-29 > 100 µM | M14 > 100 µM | SF-539 > 100 µM | SK-MEL-2 > 100 µM | SK-OV-3 > 100 µM | SR > 100 µM | OVCAR-5 > 100 µM | SF-268 > 100 µM | EKVX 35.7 µM

CCOc1ccccc1/N=N/c1c(-c2ccccc2)nn(C(=O)CC(=O)Nc2cccc(Cl)c2)c1-c1ccccc1
inactive: NCI-H522 40.5 µM | HCC 2998 26.2 µM | MOLT-4 51.6 µM | U-251 39.5 µM | UACC-62 39.6 µM | UO-31 19.2 µM | UACC-257 98.2 µM | OVCAR-4 23.1 µM | HT-29 30 µM | M14 > 100 µM | SF-539 62.1 µM | SK-MEL-2 > 100 µM | SK-OV-3 > 100 µM | SR 61 µM | OVCAR-5 50.8 µM | SF-268 29.2 µM | EKVX 41.1 µM

Cc1ccc(N2C(=O)C3C=CC(n4[nH]c(=O)n(Cc5ccccc5)c4=O)CC3C2=O)cc1 (stereo not drawn)
inactive: NCI-H522 > 100 µM | HCC 2998 > 100 µM | MOLT-4 > 100 µM | U-251 > 100 µM | UACC-62 > 100 µM | UO-31 > 100 µM | UACC-257 > 100 µM | HT-29 > 100 µM | M14 > 100 µM | SF-539 > 100 µM | SK-MEL-2 > 100 µM | SK-OV-3 > 100 µM | SR > 100 µM | OVCAR-5 > 100 µM | SF-268 > 100 µM | EKVX > 100 µM

C=CCN1/C(=C2\SC(=S)N(c3ccc(C)cc3)C2=O)Sc2c1ncn(C)c2=O
inactive: NCI-H522 46.7 µM | HCC 2998 47.6 µM | MOLT-4 > 100 µM | U-251 > 100 µM | UACC-62 > 100 µM | UO-31 > 100 µM | UACC-257 > 100 µM | OVCAR-4 94.2 µM | HT-29 > 100 µM | M14 > 100 µM | SF-539 90.8 µM | SK-MEL-2 > 100 µM | SK-OV-3 > 100 µM | SR 84.7 µM | OVCAR-5 > 100 µM | SF-268 > 100 µM | EKVX 69 µM

N/C(=N\O)N/N=C/c1ccc(O)c(O)c1
inactive: NCI-H522 > 100 µM | HCC 2998 > 100 µM | MOLT-4 > 100 µM | U-251 > 100 µM | UACC-62 > 100 µM | UO-31 > 100 µM | UACC-257 > 100 µM | OVCAR-4 > 100 µM | HT-29 > 100 µM | M14 > 100 µM | SF-539 > 100 µM | SK-MEL-2 > 100 µM | SK-OV-3 > 100 µM | SR > 100 µM | OVCAR-5 > 100 µM | SF-268 > 100 µM | EKVX > 100 µM

CCOC(=O)Cc1nc(/C(C#N)=C/c2ccco2)[nH]c(=O)c1C#N
inactive: NCI-H522 39.2 µM | HCC 2998 > 100 µM | MOLT-4 > 100 µM | U-251 > 100 µM | UACC-62 35.4 µM | UO-31 > 100 µM | UACC-257 > 100 µM | OVCAR-4 > 100 µM | HT-29 > 100 µM | M14 > 100 µM | SF-539 > 100 µM | SK-MEL-2 > 100 µM | SK-OV-3 > 100 µM | SR 97.1 µM | OVCAR-5 > 100 µM | EKVX > 100 µM

CCCN(CCC)c1c([N+](=O)[O-])cc(S(N)(=O)=O)cc1[N+](=O)[O-] [ORYZALIN]
inactive: NCI-H522 16.7 µM | HCC 2998 18.5 µM | MOLT-4 20.7 µM | U-251 12 µM | UACC-62 18.3 µM | UO-31 18.6 µM | UACC-257 18.9 µM | OVCAR-4 14 µM | HT-29 18.5 µM | M14 16.9 µM | SF-539 19.7 µM | SK-MEL-2 16.4 µM | SK-OV-3 17.4 µM | SR 23.5 µM | OVCAR-5 22.4 µM | SF-268 18.3 µM | EKVX 21.3 µM

Clc1ccc2c(Cl)ncnc2c1I
inactive: NCI-H522 20.6 µM | HCC 2998 > 100 µM | MOLT-4 24.8 µM | U-251 > 100 µM | UACC-62 63.7 µM | UO-31 67.8 µM | UACC-257 > 100 µM | OVCAR-4 > 100 µM | HT-29 > 100 µM | M14 49.8 µM | SK-MEL-2 > 100 µM | SK-OV-3 > 100 µM | SR 31.2 µM | OVCAR-5 > 100 µM | SF-268 > 100 µM | EKVX 10.4 µM

O=C(CCCNC(=O)OCc1ccccc1)OCc1ccc2c(c1)C(=O)c1ccccc1C2=O
inactive: NCI-H522 > 100 µM | HCC 2998 > 100 µM | MOLT-4 > 100 µM | U-251 86.1 µM | UACC-62 > 100 µM | UO-31 > 100 µM | UACC-257 > 100 µM | OVCAR-4 > 100 µM | HT-29 > 100 µM | M14 > 100 µM | SF-539 23.1 µM | SK-MEL-2 > 89.7 µM | SK-OV-3 29.6 µM | SR > 100 µM | OVCAR-5 > 100 µM | SF-268 53.8 µM | EKVX > 100 µM

c1ccc2c(c1)[n-]n1c3ccc4nonc4c3n[n+]21
inactive: NCI-H522 > 100 µM | HCC 2998 > 100 µM | MOLT-4 > 100 µM | U-251 > 100 µM | UACC-62 > 100 µM | UO-31 > 100 µM | UACC-257 > 100 µM | OVCAR-4 > 100 µM | HT-29 > 100 µM | M14 > 100 µM | SF-539 > 100 µM | SK-MEL-2 > 100 µM | SR > 100 µM | OVCAR-5 > 100 µM | BT-549 > 100 µM | EKVX > 100 µM

CCCCCCCCCCCCCCCC/C(C(=O)OC)=C(/O)C(=O)OCC
inactive: NCI-H522 > 100 µM | HCC 2998 > 100 µM | MOLT-4 > 100 µM | U-251 > 100 µM | UACC-62 > 100 µM | UO-31 94 µM | UACC-257 > 100 µM | OVCAR-4 > 100 µM | HT-29 > 100 µM | M14 > 100 µM | SF-539 > 100 µM | SK-MEL-2 68.9 µM | SK-OV-3 > 100 µM | SR 95.3 µM | OVCAR-5 > 100 µM | SF-268 > 100 µM
